Reference: patent publication US12458650B2, “Urination disorder-improving agent” (ASKA Pharmaceutical Co., Ltd., priority 2019, dated 2025)

Columns and labels:
[1] = test system: model of a urination disorder associated with streptozocin-induced diabetes; assay: Test Example 6: urination disorder model associated with streptozocin-induced diabetes, compound A versus dutasteride; format: in vivo, rat
Description: As described below, a model of a urination disorder associated with streptozocin-induced diabetes was prepared as a urination disorder model in accordance with Test Example 4 to evaluate the effects of the compound A and the compound C on a urination disorder. This model has no benign prostatic hyperplasia and is a model of a urination disorder associated with neuropathy and smooth muscle contraction disorder.
The body weights of Rats (male, Crl:CD(SD), 5-week-old; Charles River Laboratories Japan, Inc.) were measured. On the basis of the body weight, the rats were grouped or divided into two (2) groups. The day after the rats were grouped, a fist group received intraperitoneal administration of a citrate buffer (pH 4.5) (10 mL/kg) having a concentration of 0.1 mmol/L, and a second group received intraperitoneal administration of streptozocin (STZ; Sigma-Aldrich) (50 mg/kg). Streptozocin (STZ) was administered in the form of a solution of streptozocin having a concentration of 5 mg/mL in the citrate buffer.
About one (1) week after streptozocin (STZ) was administered, the body weight and the fasting blood glucose were measured. In the streptozocin (STZ) administration group (the second group), individuals having a fasting blood glucose level of not less than 300 mg/dL were used as animals with induced diabetes. These animals with induced diabetes are a model having no abnormality of the prostate (having no benign prostatic hyperplasia). On the basis of the body weight and the fasting blood glucose level, the animals (models) with induced diabetes were grouped or divided into three (3) groups by randomized, multivariable block allocation.
To the three model groups with induced diabetes, a 0.5 v/v % Polysorbate 80 solution (0.5% P) (10 mL/kg), the compound A (3 mg/kg), and the compound C (dutasteride) (0.3 mg/kg) were orally administered, respectively, wherein the administration schedule in all groups was a frequency of once a day, only on weekdays, over four (4) weeks. Moreover, to the above-mentioned first group, a 0.5 v/v % Polysorbate 80 solution (0.5% P) (10 mL/kg) was orally administered in the same administration schedule (normal group). On the last day of administration, a cannula was inserted into and secured to the dome of the bladder under isoflurane anesthesia, and cystometry (Cystometogram, CMG) was conducted in the order of under awake condition and under urethane anesthesia to measure the intravesical pressure, the voided volume, and the residual urine volume. After the completion of the measurement, the blood was collected under deep isoflurane anesthesia, and then the prostate (ventral prostate, dorsolateral prostate) was extracted and each was weighed. Moreover, the blood glucose level in the collected blood was measured.
The test substances and the dosage in the test system (rats having the urination disorder associated with diabetes) are as follows. • Normal group: citrate buffer 10 mL/kg (intraperitoneal administration), 0.5% P 10 mL/kg (oral administration) (n=10) • Solvent group (control group): STZ 50 mg/kg (intraperitoneal administration), 0.5% P 10 mL/kg (oral administration) (n=10) • Group A3: STZ 50 mg/kg (intraperitoneal administration), Compound A 3 mg/kg (oral administration) (n=10) • Group C0.3: STZ 50 mg/kg (intraperitoneal administration), Compound C (dutasteride) 0.3 mg/kg (oral administration) (n=10)
Urination parameter: In the same manner as in Test Example 4, the residual urine volume (mL) and the urination efficiency % were determined as urination parameters in each urination, and the average value of two measurements was taken as a measured value of each individual.
Prostate weight: In the same manner as in Test Example 4, the weight of the prostate (ventral prostate, dorsolateral prostate, and whole) was converted to a tissue weight per 100 g of the body weight. […]

[2] = test system: lower urinary tract obstruction model of rats; assay: Test Example 2: urination function in male rat lower urinary tract obstruction model (cystometry under no anesthesia); format: in vivo; conditions: Group A: 10 mg/kg oral once a day, 14 days, in comparison with Group C (dutasteride 0.5 mg/kg), FIG. 7, 8
Description: A lower urinary tract obstruction model of rats was used as a test system. A test substance was orally administered to the lower urinary tract obstruction model repeatedly over 14 days to examine the action on the urination function in the lower urinary tract obstruction model. The lower urinary tract obstruction model is not a benign prostatic hyperplasia model with enlarged prostate.
More specifically, the rats (male, Crl:CD(SD), 8-week-old; Charles River Laboratories Japan, Inc.) were operated to form lower urinary tract obstruction and repeatedly received oral administration of the test substance at a frequency of once a day over 14 days. After the completion of the administration, each rat was subjected to bladder catheterization under anesthesia and cystometry under no anesthesia and was evaluated for the residual urine volume and the urination efficiency.
The test substances and the dosage in the test system (male rats with lower urinary tract obstruction) are as follows. • Solvent group (control group): 0.5 v/v % Polysorbate 80 solution, 10 mL/kg (n=8) • Group A: Compound A, 10 mg/kg (n=12) • Group C: Compound C (dutasteride), 0.5 mg/kg (n=11) • Dutasteride is a 5a reductase inhibitor.

[3] = Group A3: 3 mg/kg oral, 4 weeks, relative to solvent group

Compound: CC(=O)O[C@]1(C(C)=O)C[C@@H](O)[C@H]2[C@@H]3C=C(Cl)C4=CC(=O)OC[C@]4(C)[C@H]3CC[C@@]21C [Compound A, 17α-acetoxy-6-chloro-15β-hydroxy-2-oxa-4,6-pregnadiene-3,20-dione]
- therapeutic effect on diabetes (blood glucose level) ([1]; Group A3: 3 mg/kg oral, 4 weeks): no therapeutic effect on diabetes
- Dorsolateral prostate (atrophy rate) [1, 3]: (40.2%)
- Ventral prostate (atrophy rate) [1, 3]: (40.0%)
- Whole prostate (atrophy rate) [1, 3]: (40.1%)
- residual urine volume ([1]; Group A3: 3 mg/kg, cystometry under awake condition, vs solvent group (p<0.05), FIG. 19): significantly decreased
- urination efficiency ([1]; Group A3: 3 mg/kg, cystometry under awake condition, vs solvent group (p<0.05), FIG. 20): significantly improved
- bladder contraction force on urination by nomogram analysis ([1]; Group A3: 3 mg/kg, in comparison with the solvent group and Group C0.3, FIG. 21): strong bladder contraction force
- urination function (the residual urine volume, the urination efficiency) [2]: strong improvement action
